Assay [1] concerns the target Frog MOR (rpMOR) (Lithobates pipiens, UniProt Q7T069). The assay is described as follows: cell-based. Set-up: species or system Rana pipiens.
Assay [2] has as its system Frog DOR. The format is cell-based, Rana pipiens. As to conditions: Table 2, HEK 293T cells; for pEC50: NA = not active.
Assay [3] concerns the target Frog KOR (Lithobates pipiens, UniProt B0JCV9). Briefly: Inhibition of isoproterenol-induced cAMP production. The format is cell-based, Rana pipiens. (Cyclic AMP is a second messenger, typically raised through Gs and lowered through Gi signalling.)
For assay [4], the system named is h-rpMOR-wt (rpMOR with humanized N-terminus). The assay is described as follows: Inhibition of isoproterenol-stimulated cAMP response, chimera h-rpMOR-wt. As to conditions: Table 3, HEK 293T cells. The format is cell-based, human / Rana pipiens.
Assay [5] concerns h-rpMOR-E2h (h-rpMOR-EL2h). The assay is described as follows: Inhibition of isoproterenol-stimulated cAMP response, chimera h-rpMOR-E2h. As to conditions: for pEC50 / log EC50 ±SEM: Table 3, h-rpMOR-E2h, HEK 293T cells. The format is cell-based, human / Rana pipiens.
Assay [6] relates to h-rpMOR-E3h (h-rpMOR-EL3h). The assay is described as follows: Inhibition of isoproterenol-stimulated cAMP response, chimera h-rpMOR-E3h. As to conditions: for pEC50 / log EC50 ±SEM: Table 3, h-rpMOR-E3h, HEK 293T cells. Format: cell-based, human / Rana pipiens.
The target of assay [7] is rpMOR. The assay is described as follows: Competition binding with radiolabeled diprenorphine, rpMOR. Set-up: species or system Rana pipiens. As to conditions: Table 3, [3H]-diprenorphine competition.
In assay [8] the target is h-rpMOR-wt. Briefly: Competition binding with radiolabeled diprenorphine, h-rpMOR-wt. Set-up: species or system human / Rana pipiens. As to conditions: Table 3, [3H]-diprenorphine competition.
For assay [9], the target named is h-rpMOR-E2h (h-rpMOR EL2h). The assay is described as follows: Competition binding with radiolabeled diprenorphine, h-rpMOR-E2h. Set-up: species or system human / Rana pipiens. As to conditions: Table 3, [3H]-diprenorphine competition.
The target in assay [10] is h-rpMOR-E3h. The assay is described as follows: Competition binding with radiolabeled diprenorphine, h-rpMOR-E3h. The arrangement: species or system human / Rana pipiens. As to conditions: Table 3, [3H]-diprenorphine competition.
Assay [11] deals with three tested frog ORs. Briefly: cAMP inhibition, the three tested frog ORs. Format: cell-based, Rana pipiens. As to conditions: frog KOR, MOR, DOR; cAMP assay.
Assay [12] concerns ORs in the brains and spinal cord. As to conditions: Rana pipiens tissue; cited from earlier work.
The target of assay [13] is Human DOR (Homo sapiens, UniProt P41143). Briefly: cell-based.
Sequence of Human DOR (P41143 whole entry): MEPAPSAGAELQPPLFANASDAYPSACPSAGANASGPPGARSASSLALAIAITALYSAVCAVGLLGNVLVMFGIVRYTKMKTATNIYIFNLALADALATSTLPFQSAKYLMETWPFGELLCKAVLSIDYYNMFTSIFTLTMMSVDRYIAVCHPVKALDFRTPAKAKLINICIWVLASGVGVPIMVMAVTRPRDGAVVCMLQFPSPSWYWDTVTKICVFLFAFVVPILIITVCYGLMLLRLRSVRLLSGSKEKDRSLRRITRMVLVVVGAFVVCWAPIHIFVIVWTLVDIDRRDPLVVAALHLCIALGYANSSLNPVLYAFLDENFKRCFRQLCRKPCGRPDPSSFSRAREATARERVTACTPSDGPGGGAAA
Assay [14] concerns human DOR. As to conditions: human (but not murine) DOR; cited from earlier work.
Assay [15] has as its target Human KOR (Homo sapiens, UniProt P41145). The assay is described as follows: cell-based.
In assay [16] the test system is human DOR (Leu300Trp). Briefly: Inhibition of cAMP response, hDOR Leu300Trp mutant. The format is cell-based. As to conditions: hDOR Leu300Trp vs hDOR.
For assay [17], the system named is rpDOR Trp301Leu (7.35). Briefly: Functional and binding studies, rpDOR mutant Trp301Leu. Format: cell-based, Rana pipiens.
In assay [18] the test system is rpDOR mutants Met287Leu, Asn294Asp and Tyr296Leu. Briefly: Functional studies, rpDOR mutants Met287Leu, Asn294Asp and Tyr296Leu. Format: cell-based, Rana pipiens. As to conditions: data not shown.
[19] abbreviates: relative to chimera with humanized N-terminus only.

pEC50, pKi: −log10 of the molar value. Where “and” joins values, the source holds several entries; their conditions need not be identical. Equal values may be shown once. No end group written: not given here.

Sequence of Frog MOR (rpMOR) (Q7T069 1-388): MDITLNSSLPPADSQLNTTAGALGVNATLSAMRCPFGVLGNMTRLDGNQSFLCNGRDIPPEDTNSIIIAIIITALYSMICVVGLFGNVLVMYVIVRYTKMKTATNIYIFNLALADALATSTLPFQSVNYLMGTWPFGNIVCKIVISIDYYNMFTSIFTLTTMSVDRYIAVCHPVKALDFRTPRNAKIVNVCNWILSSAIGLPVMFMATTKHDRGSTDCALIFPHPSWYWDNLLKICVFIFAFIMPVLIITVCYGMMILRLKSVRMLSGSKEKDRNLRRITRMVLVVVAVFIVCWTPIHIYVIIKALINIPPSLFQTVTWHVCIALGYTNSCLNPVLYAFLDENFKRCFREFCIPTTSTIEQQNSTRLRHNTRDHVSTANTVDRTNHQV
Sequence of Frog KOR (B0JCV9 1-390): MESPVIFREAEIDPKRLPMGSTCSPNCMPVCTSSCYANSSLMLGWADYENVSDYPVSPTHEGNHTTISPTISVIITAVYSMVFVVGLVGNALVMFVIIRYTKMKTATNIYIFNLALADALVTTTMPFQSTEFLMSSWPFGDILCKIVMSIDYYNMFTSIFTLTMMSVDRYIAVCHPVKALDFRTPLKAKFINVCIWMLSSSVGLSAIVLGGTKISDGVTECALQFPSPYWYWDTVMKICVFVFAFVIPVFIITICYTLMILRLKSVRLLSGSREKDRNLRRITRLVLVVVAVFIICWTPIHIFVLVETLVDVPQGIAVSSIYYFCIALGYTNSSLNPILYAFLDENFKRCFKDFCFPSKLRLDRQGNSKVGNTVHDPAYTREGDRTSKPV
Sequence of Human KOR (P41145 whole entry): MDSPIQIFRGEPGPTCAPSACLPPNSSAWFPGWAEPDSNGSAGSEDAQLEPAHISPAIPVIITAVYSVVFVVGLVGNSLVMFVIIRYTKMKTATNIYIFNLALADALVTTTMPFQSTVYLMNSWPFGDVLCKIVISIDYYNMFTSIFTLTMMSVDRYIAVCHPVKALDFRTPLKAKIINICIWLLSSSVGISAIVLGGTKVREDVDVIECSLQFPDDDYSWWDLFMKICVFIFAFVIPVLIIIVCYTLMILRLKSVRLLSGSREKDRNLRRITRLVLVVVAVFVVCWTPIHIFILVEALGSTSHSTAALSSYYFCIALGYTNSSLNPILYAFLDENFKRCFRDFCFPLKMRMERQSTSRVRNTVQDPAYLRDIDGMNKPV

In the case of `CC(C)C[C@@H](NC(=O)[C@H](Cc1ccccc1)NC(=O)CNC(=O)[C@@H](C)NC(=O)[C@@H](N)Cc1ccc(O)cc1)C(=O)O` [DADLE, [D-Ala^2,D-Leu^5]-enkephalin], the pEC50 was 6.32 in [1] (EC50), 6.30 in [1] (log EC50 ±SEM) and 6.45 in assay [2]. The “log EC50 ±SEM” value in assay [2] is −6.5±0.06 logM.

As for `C[C@@H](NC(=O)[C@@H](N)Cc1ccc(O)cc1)C(=O)NCC(=O)N(C)[C@@H](Cc1ccccc1)C(=O)NCCO` [DAMGO, [D-Ala^2,N-MePhe^4,Gly-ol]-enkephalin], the pEC50 in [3] (EC50, Table 2, HEK 293T cells, NA = not active) was 5.62; in assay [3] (log EC50 ±SEM, Table 2, HEK 293T cells), 5.60; in assay [1] (EC50), 5.82 and 5.72; in assay [1] (log EC50 ±SEM) it was 5.80 and 5.70; in assay [4], 7.02; in assay [5], 7.09. The molecule further gave a pEC50 in assay [6] of 7.66. In addition, the “log EC50 ±SEM” value is listed as −7.0 ± 0.08 M in [4], −7.1 ± 0.07 M in assay [5] and −7.7 ± 0.07 M in [6]. The pKi in [7] is 6.80; in assay [8] it was 7.00; in assay [9], 7.10; in assay [10], 6.92.

For the molecule `CC(C)[C@H](NC(=O)[C@H](CC(=O)O)NC(=O)[C@H](Cc1ccccc1)NC(=O)[C@@H](C)NC(=O)[C@@H](N)Cc1ccc(O)cc1)C(=O)N[C@H](C(=O)NCC(N)=O)C(C)C` [Deltorphin C, Tyr-D-Ala-Phe-Asp-Val-Val-Gly-NH2], the “agonist activity at the three tested frog ORs” value in assay [11] is “inactive”.

With `C[C@@H](NC(=O)[C@@H](N)Cc1ccc(O)cc1)C(=O)N[C@@H](Cc1ccccc1)C(=O)NCC(=O)N[C@@H](Cc1ccc(O)cc1)C(=O)N1CCC[C@H]1C(=O)N[C@@H](CO)C(N)=O` [Dermorphin], the pEC50 in assay [4] is 6.64; in assay [5], 7.40; in assay [6] it was 6.89. Also, the “log EC50 ±SEM” value is reported as −6.7 ± 0.08 M in assay [4], −7.4 ± 0.07 M in [5] and −6.9 ± 0.1 M in assay [6]. Further, in assay [5] (setting [19]), the “enhancement of receptor activation by humanization of EL2” value is ~ 10 fold. Moreover, the “enhancement of receptor activation by humanization of EL3” value in assay [6] (setting [19]) was ~ 2 fold. The figures for the pKi in assay [7] and in [9] were 5.79 and 6.95, respectively. In addition, the “affinities to ORs in the brains and spinal cord” value in assay [12] was 30 to 80 µM.

Regarding `CC(C)C[C@H](NC(=O)[C@H](Cc1ccccc1)NC(=O)CNC(=O)CNC(=O)[C@@H](N)Cc1ccc(O)cc1)C(=O)N[C@@H](CCCN=C(N)N)C(=O)N[C@@H](CCCN=C(N)N)C(=O)N[C@@H](CCC(N)=O)C(=O)N[C@@H](Cc1ccccc1)C(=O)N[C@@H](CCCCN)C(=O)N[C@H](C(=O)N[C@H](C(=O)N[C@H](C(=O)O)[C@@H](C)O)C(C)C)C(C)C` [Dynorphin B], the pEC50 in [3] (EC50) is 6.77; in assay [3] (log EC50 ±SEM), 6.80; in assay [1] (EC50) it was 5.28; in assay [1] (log EC50 ±SEM) it was 5.30; in [13] (EC50), 6.44; in assay [13] (log EC50 ±SEM), 6.40.

With `NC(=O)[C@H](Cc1ccccc1)NC(=O)[C@H](Cc1c[nH]c2ccccc12)NC(=O)[C@@H]1CCCN1C(=O)[C@@H](N)Cc1ccc(O)cc1` [Endomorphin 1], the pEC50 was 6.42 and 6.44 in assay [1] (EC50); 6.40 and 6.50 in assay [1] (log EC50 ±SEM); 7.37 in assay [4]; 7.02 in assay [5]. Also, the “log EC50 ±SEM” value in [4] is listed as −7.4 ± 0.07 M.

For the molecule `NC(=O)[C@H](Cc1ccccc1)NC(=O)[C@H](Cc1ccccc1)NC(=O)[C@@H]1CCCN1C(=O)[C@@H](N)Cc1ccc(O)cc1` [Endomorphin 2], the negative-log EC50 (pEC50) was 6.11 and 6.04 in assay [1] (EC50); 6.10 and 6.00 in [1] (log EC50 ±SEM); 7.03 in assay [4]; 6.72 in assay [5]; 7.49 in assay [6]. In assay [5], the “log EC50 ±SEM” value is listed as −6.7 ± 0.32 M.

In the case of DIPP-NH2, the agonist activity entry in assay [14] is on record as “weak partial agonist activity”.

As to YGGFIRKPDKYKFLNA [Xendorphin], in assay [3], the “activity at frog and human KORs compared” value was “equally active”.

Take YGGFLRKYPK [α-Neoendorphin]: the pEC50 was 7.96 in assay [15] (EC50); 8.00 in assay [15] (log EC50 ±SEM); 7.11 in assay [3] (EC50); 7.10 in assay [3] (log EC50 ±SEM); 5.80 in [13] (EC50); 5.80 in [13] (log EC50 ±SEM). Moreover, in assay [2], the pEC50 is 5.80. Moreover, the “fold less potent at the frog KOR” value in assay [3] is recorded as 10 fold. Also, in assay [2], the “log EC50 ±SEM” value is −5.8±0.08 logM.

Take deltorphin: in assay [16], the “decrease of potency by the L300W mutation” value is reported as around 2000 fold. The “response of the mutant compared to rpDOR” value in assay [17] was “substantially increased potency and affinity”. Moreover, in [18], the “response of the mutants” value is “did not respond”. In addition, the “affinities to ORs in the brains and spinal cord” value in [12] is 30 to 80 µM.

What is called pEC50 is −log10 of the EC50, conventionally taken in molar units. A lower pEC50 goes with a large EC50. The pKi is −log10 of the Ki, conventionally taken in molar units.

These data come from paper PMC4507497 (Chemistry & biology, 2015).
